Results taken from ChEMBL document CHEMBL3822420, “New peptide deformylase inhibitors design, synthesis and pharmacokinetic assessment” (Bioorg Med Chem Lett, 2016).
In brackets after ≈: the same amount, converted by molar mass.

Columns and labels:
[1] = test system: Staphylococcus epidermidis; experiment: Antibacterial activity against methicillin-resistant Staphylococcus epidermidis 14-4; format: functional
[2] = test system: Staphylococcus epidermidis; experiment: Antibacterial activity against methicillin-sensitive Staphylococcus epidermidis 14-3; format: functional
[3] = test system: Staphylococcus aureus; experiment: Antibacterial activity against methicillin-sensitive Staphylococcus aureus 14-3; format: functional
[4] = test system: Staphylococcus epidermidis; experiment: Antibacterial activity against methicillin-resistant Staphylococcus epidermidis 14-3; format: functional
[5] = test system: Staphylococcus aureus; experiment: Antibacterial activity against methicillin-resistant Staphylococcus aureus 14-2; format: functional
[6] = test system: Enterococcus faecalis; experiment: Antibacterial activity against Enterococcus faecalis 14-3; format: functional
[7] = test system: Enterococcus faecalis; experiment: Antibacterial activity against Enterococcus faecalis 14-5; format: functional
[8] = test system: Staphylococcus aureus; experiment: Antibacterial activity against methicillin-resistant Staphylococcus aureus 14-1; format: functional
[9] = test system: Enterococcus faecalis; experiment: Antibacterial activity against Enterococcus faecalis 14-1; format: functional
[10] = test system: Escherichia coli; experiment: Antibacterial activity against Escherichia coli 14-1 expressing extended-spectrum beta-lactamase; format: functional
[11] = test system: Escherichia coli; experiment: Antibacterial activity against Escherichia coli 14-2; format: functional
[12] = test system: Enterococcus faecalis; experiment: Antibacterial activity against Enterococcus faecalis 14-2; format: functional
[13] = test system: Staphylococcus aureus; experiment: Antibacterial activity against methicillin-sensitive Staphylococcus aureus 14-1; format: functional
[14] = test system: Escherichia coli; experiment: Antibacterial activity against Escherichia coli 14-2 expressing extended-spectrum beta-lactamase; format: functional
[15] = test system: Staphylococcus aureus; experiment: Antibacterial activity against methicillin-resistant Staphylococcus aureus 14-5; format: functional
[16] = test system: Staphylococcus aureus; experiment: Antibacterial activity against methicillin-sensitive Staphylococcus aureus 14-2; format: functional
[17] = test system: Staphylococcus epidermidis; experiment: Antibacterial activity against methicillin-resistant Staphylococcus epidermidis 14-1; format: functional
[18] = test system: Staphylococcus aureus; experiment: Antibacterial activity against methicillin-sensitive Staphylococcus aureus 14-4; format: functional
[19] = test system: Staphylococcus epidermidis; experiment: Antibacterial activity against methicillin-resistant Staphylococcus epidermidis 14-2; format: functional
[20] = test system: Staphylococcus epidermidis; experiment: Antibacterial activity against methicillin-sensitive Staphylococcus epidermidis 14-1; format: functional
[21] = test system: Staphylococcus epidermidis; experiment: Antibacterial activity against methicillin-sensitive Staphylococcus epidermidis 14-2; format: functional
[22] = test system: Staphylococcus aureus; experiment: Antibacterial activity against methicillin-resistant Staphylococcus aureus 14-4; format: functional
[23] = test system: Escherichia coli; experiment: Antibacterial activity against Escherichia coli 14-1; format: functional
[24] = Oral bioavailability in Sprague-Dawley rat at 10 mg/kg; format: ADME, organism-based; details: in vivo
[25] = Cmax in Sprague-Dawley rat at 10 mg/kg, po; format: ADME, organism-based; set-up: dose 10 mg/kg, route oral; details: in vivo
[26] = AUC (0 to t) in Sprague-Dawley rat at 10 mg/kg, po; format: ADME, organism-based; details: in vivo
[27] = Half life in Sprague-Dawley rat at 10 mg/kg, po; format: ADME, organism-based; details: Sprague-Dawley, in vivo
[28] = MRT (0 to t) in Sprague-Dawley rat at 10 mg/kg, po; format: ADME, organism-based; details: in vivo
[29] = Tmax in Sprague-Dawley rat at 2 mg/kg, iv; format: ADME, organism-based; details: in vivo
[30] = Clearance in Sprague-Dawley rat at 2 mg/kg, iv; format: ADME, organism-based; details: in vivo
[31] = Clearance in Sprague-Dawley rat at 10 mg/kg, po; format: ADME, organism-based; details: Sprague-Dawley, in vivo
[32] = AUC (0 to infinity) in Sprague-Dawley rat at 10 mg/kg, po; format: ADME, organism-based; set-up: dose 10 mg/kg, time infinity, route oral; details: Sprague-Dawley, in vivo
[33] = Cmax in Sprague-Dawley rat at 2 mg/kg, iv; format: ADME, organism-based; set-up: dose 2 mg/kg, route intravenous; details: in vivo
[34] = MRT (0 to t) in Sprague-Dawley rat at 2 mg/kg, iv; format: ADME, organism-based; details: in vivo
[35] = AUC (0 to infinity) in Sprague-Dawley rat at 2 mg/kg, iv; format: ADME, organism-based; set-up: dose 2 mg/kg, route intravenous, time infinity; details: Sprague-Dawley, in vivo
[36] = Half life in Sprague-Dawley rat at 2 mg/kg, iv; format: ADME, organism-based; details: in vivo
[37] = Tmax in Sprague-Dawley rat at 10 mg/kg, po; format: ADME, organism-based; details: in vivo
[38] = test system: Rattus norvegicus; experiment: Volume of distribution at steady state in Sprague-Dawley rat at 10 mg/kg, po; format: ADME, organism-based; details: in vivo
[39] = Volume of distribution at steady state in Sprague-Dawley rat at 2 mg/kg, iv; format: ADME, organism-based; details: in vivo, read-out: Vdss
[40] = AUC (0 to t) in Sprague-Dawley rat at 2 mg/kg, iv; format: ADME, organism-based; details: Sprague-Dawley, in vivo

| SMILES | MIC [1] [µg/mL] | MIC [2] [µg/mL] | MIC [3] [µg/mL] | MIC [4] [µg/mL] | MIC [5] [µg/mL] | MIC [6] [µg/mL] | MIC [7] [µg/mL] | MIC [8] [µg/mL] | MIC [9] [µg/mL] | MIC [10] [µg/mL] | MIC [11] [µg/mL] | MIC [12] [µg/mL] | MIC [13] [µg/mL] | MIC [14] [µg/mL] | MIC [15] [µg/mL] | MIC [16] [µg/mL] | MIC [17] [µg/mL] | MIC [18] [µg/mL] | MIC [19] [µg/mL] | MIC [20] [µg/mL] | further results |
| --- | --- | --- | --- | --- | --- | --- | --- | --- | --- | --- | --- | --- | --- | --- | --- | --- | --- | --- | --- | --- | --- |
| CCCC[C@H](CN(O)C=O)C(=O)N1CC2(CC2)C[C@H]1C(=O)Nc1ncccc1F | 0.5 (≈ 1.23 µM) | 0.25 (≈ 0.615 µM) | 0.5 (≈ 1.23 µM) | 0.125 (≈ 0.308 µM) | 0.5 (≈ 1.23 µM) | 2 (≈ 4.92 µM) | 2 (≈ 4.92 µM) | 0.5 (≈ 1.23 µM) | 2 (≈ 4.92 µM) | 2 (≈ 4.92 µM) | 64 (≈ 157 µM) | 2 (≈ 4.92 µM) | 0.5 (≈ 1.23 µM) | 64 (≈ 157 µM) | 0.25 (≈ 0.615 µM) | 0.5 (≈ 1.23 µM) | 0.25 (≈ 0.615 µM) | 0.5 (≈ 1.23 µM) | 0.25 (≈ 0.615 µM) | 0.125 (≈ 0.308 µM) | MIC [21]: 0.25 µg/mL (≈ 0.615 µM); MIC [22]: 0.5 µg/mL (≈ 1.23 µM); MIC [23]: > 64 µg/mL |
| Cc1nc(NNC(=O)[C@H](CC2CCCC2)CN(O)C=O)c(F)c(N2CCN3CCOC[C@@H]3C2)n1 [LANOPEPDEN] | 0.25 (≈ 0.521 µM) | 0.06 (≈ 0.125 µM) | 1 (≈ 2.09 µM) | 0.015 (≈ 0.0313 µM) | 1 (≈ 2.09 µM) | 16 (≈ 33.4 µM) | > 64 | 2 (≈ 4.17 µM) | 8 (≈ 16.7 µM) | 1 (≈ 2.09 µM) | 64 (≈ 133 µM) | 16 (≈ 33.4 µM) | 1 (≈ 2.09 µM) | > 64 | 0.25 (≈ 0.521 µM) | 1 (≈ 2.09 µM) | 0.125 (≈ 0.261 µM) | 1 (≈ 2.09 µM) | 0.06 (≈ 0.125 µM) | 0.125 (≈ 0.261 µM) | MIC [21]: 0.25 µg/mL (≈ 0.521 µM); MIC [22]: 2 µg/mL (≈ 4.17 µM); MIC [23]: 64 µg/mL (≈ 133 µM) |
| CCCC[C@H](CN(O)C=O)C(=O)N1CC2(CC2)C[C@H]1C(=O)Nc1ccc(F)c[n+]1[O-] | 0.125 (≈ 0.296 µM) | 0.03 (≈ 0.071 µM) | 0.125 (≈ 0.296 µM) | 0.03 (≈ 0.071 µM) | 0.25 (≈ 0.592 µM) | 0.5 (≈ 1.18 µM) | 128 (≈ 303 µM) | 0.25 (≈ 0.592 µM) | 0.25 (≈ 0.592 µM) | 1 (≈ 2.37 µM) | 64 (≈ 151 µM) | 0.5 (≈ 1.18 µM) | 0.125 (≈ 0.296 µM) | 64 (≈ 151 µM) | 0.125 (≈ 0.296 µM) | 0.125 (≈ 0.296 µM) | 0.03 (≈ 0.071 µM) | 0.125 (≈ 0.296 µM) | 0.06 (≈ 0.142 µM) | 0.03 (≈ 0.071 µM) | bioavailability [24]: 31%; Cmax [25]: 1850 ng/mL; AUC(0-t) [26]: 1960 ng·h/mL; half-life [27]: 4.94 h; MRT last [28]: 2.04 h; Tmax [29]: 8.4 min; clearance [30]: 26.2 mL/min/kg; CL/F [31]: 91.3 mL/min/kg; AUC(0-inf) [32]: 1990 ng·h/mL; Cmax [33]: 1780 ng/mL; MRT last [34]: 1.65 h; AUC(0-inf) [35]: 1280 ng·h/mL; half-life [36]: 3.63 h; Tmax [37]: 0.25 h; Vdss [38]: 39.4 L/kg; Vd [39]: 2.6 L/kg; AUC(0-t) [40]: 1260 ng·h/mL; MIC [21]: 0.125 µg/mL (≈ 0.296 µM); MIC [22]: 0.125 µg/mL (≈ 0.296 µM); MIC [23]: 128 µg/mL (≈ 303 µM) |
